# Assay results published in PubChem BioAssay AID328 (DTP/NCI, 2004).
# “And” between values parts separate entries of the source, which are not always exact repeats. Equal entries are not always repeated. Inconclusive results and toxic doses are left out.
# Test system: BDF1 mice, P388 leukemia ip, median survival T/C
# Experiment: NCI In Vivo Anticancer Drug Screen. Data for tumor model P388 Leukemia (intraperitoneal) in B6D2F1 (BDF1) mice
# Conditions: endpoint: median survival time, higher = longer survival
# Outline: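 Read-out is survival of treated animals expressed relative to the vehicle group, as a T/C ratio.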
# [1] = dose: 50.0 mg/kg/injection, schedule: Q04DX003 (ip), vehicle: saline with Tween-80
# [2] = dose: 100.0 mg/kg/injection, schedule: Q04DX003 (ip), vehicle: saline with Tween-80
# [3] = dose: 200.0 mg/kg/injection, schedule: Q04DX003 (ip), vehicle: saline with Tween-80
# [4] = dose: 400.0 mg/kg/injection, schedule: Q04DX003 (ip), vehicle: saline with Tween-80
# [5] = dose: 25.0 mg/kg/injection, schedule: Q01DX009 (ip), vehicle: saline
# [6] = dose: 50.0 mg/kg/injection, schedule: Q01DX009 (ip), vehicle: saline
smiles,measurement,setting,value
CC(=O)OCC1OC(=O)C(C)N(C)C(=O)CN(C)C(=O)C2C(=O)CC(C)N2C(=O)C(C(C)C)NC(=O)C1NC(=O)c1c2nc3c(C(=O)NC4C(=O)NC(C(C)C)C(=O)N5C(C)CC(OC(C)=O)C5C(=O)N(C)CC(=O)N(C)C(C(C)C)C(=O)OC4C)ccc(C)c3oc-2c(C)c(=O)c1N (stereo unspecified),T/C,"dose: 0.05 mg/kg/injection, schedule: Q01DX009 (ip), vehicle: saline with Tween-80",154 % of control
same,T/C,"dose: 0.1 mg/kg/injection, schedule: Q01DX009 (ip), vehicle: saline with Tween-80",156 % of control
same,T/C,"dose: 0.2 mg/kg/injection, schedule: Q01DX009 (ip), vehicle: saline with Tween-80",189 % of control
same,T/C,"dose: 0.4 mg/kg/injection, schedule: Q01DX001 (ip), vehicle: saline with Tween-80",153 % of control
same,T/C,"dose: 0.4 mg/kg/injection, schedule: Q01DX009 (ip), vehicle: saline with Tween-80",213 % of control
same,T/C,"dose: 0.6 mg/kg/injection, schedule: Q04DX003 (ip), vehicle: saline with Tween-80",159 % of control
same,T/C,"dose: 0.8 mg/kg/injection, schedule: Q01DX001 (ip), vehicle: saline with Tween-80",159 % of control
same,T/C,"dose: 0.8 mg/kg/injection, schedule: Q01DX009 (ip), vehicle: saline with Tween-80",117 % of control
same,T/C,"dose: 1.2 mg/kg/injection, schedule: Q04DX003 (ip), vehicle: saline with Tween-80",189 % of control
same,T/C,"dose: 1.6 mg/kg/injection, schedule: Q01DX001 (ip), vehicle: saline with Tween-80",159 % of control
same,T/C,"dose: 2.4 mg/kg/injection, schedule: Q04DX003 (ip), vehicle: saline with Tween-80",117 % of control
same,T/C,"dose: 3.2 mg/kg/injection, schedule: Q01DX001 (ip), vehicle: saline with Tween-80",189 % of control
CC(C)CC(NC(=O)C(C)N)C(=O)NCC(=O)O (stereo unspecified),T/C,"dose: 50.0 mg/kg/injection, schedule: Q01DX005 (ip), vehicle: saline",100 % of control
same,T/C,"dose: 100.0 mg/kg/injection, schedule: Q01DX005 (ip), vehicle: saline",91 % of control
same,T/C,"dose: 200.0 mg/kg/injection, schedule: Q01DX005 (ip), vehicle: saline",103 % of control
CN(C)c1ccc(/C=C2\NC(=O)NC2=O)cc1,T/C,"dose: 100.0 mg/kg/injection, schedule: Q01DX001 (ip), vehicle: saline with Tween-80",103 % of control
same,T/C,"dose: 200.0 mg/kg/injection, schedule: Q01DX001 (ip), vehicle: saline with Tween-80",97 % of control
same,T/C,"dose: 400.0 mg/kg/injection, schedule: Q01DX001 (ip), vehicle: saline with Tween-80",95 % of control
O=C(O)c1cc(B(O)O)[nH]n1,T/C,"dose: 50.0 mg/kg/injection, schedule: Q01DX001 (ip), vehicle: saline sonified",104 % of control
same,T/C,"dose: 100.0 mg/kg/injection, schedule: Q01DX001 (ip), vehicle: saline sonified",100 % of control
same,T/C,"dose: 200.0 mg/kg/injection, schedule: Q01DX001 (ip), vehicle: saline sonified",100 % of control
CC1(C)CC(=O)OC(=O)C1,T/C,"dose: 3.13 mg/kg/injection, schedule: Q01DX009 (ip), vehicle: saline with Tween-80",93 % of control
same,T/C,"dose: 6.25 mg/kg/injection, schedule: Q01DX009 (ip), vehicle: saline with Tween-80",100 % of control
same,T/C,"dose: 12.5 mg/kg/injection, schedule: Q01DX009 (ip), vehicle: saline with Tween-80",95 % of control
same,T/C,"dose: 25.0 mg/kg/injection, schedule: Q01DX009 (ip), vehicle: saline with Tween-80",105 % of control
ON=C(CSCc1ccccc1)CSCc1ccccc1,T/C,[1],99 % of control
same,T/C,[2],103 % of control
same,T/C,[3],88 % of control
same,T/C,[4],95 % of control
CCOP1(=S)OCC(C)O1 (stereo unspecified),T/C,"dose: 100.0 mg/kg/injection, schedule: Q04DX002 (ip), vehicle: saline with Tween-80",105 % of control
same,T/C,"dose: 200.0 mg/kg/injection, schedule: Q04DX002 (ip), vehicle: saline with Tween-80",99 % of control
same,T/C,"dose: 400.0 mg/kg/injection, schedule: Q04DX002 (ip), vehicle: saline with Tween-80",105 % of control
Cc1nc(Cl)c2cnccn12,T/C,"dose: 12.5 mg/kg/injection, schedule: Q01DX009 (ip), vehicle: saline",100 % of control
same,T/C,[5],95 % of control
same,T/C,[6],86 % of control
CC(=O)Oc1ccc(OC(C)=O)c2c1C(=O)C=CC2=O,T/C,"dose: 0.09 mg/kg/injection, schedule: Q01DX009 (ip), vehicle: Klucel (hydroxypropylcellulose) (HPC)",97 % of control
same,T/C,"dose: 0.18 mg/kg/injection, schedule: Q01DX009 (ip), vehicle: Klucel (hydroxypropylcellulose) (HPC)",97 % of control
same,T/C,"dose: 0.37 mg/kg/injection, schedule: Q01DX009 (ip), vehicle: Klucel (hydroxypropylcellulose) (HPC)",112 % of control
same,T/C,"dose: 0.75 mg/kg/injection, schedule: Q01DX009 (ip), vehicle: Klucel (hydroxypropylcellulose) (HPC)",118 % of control
same,T/C,"dose: 1.5 mg/kg/injection, schedule: Q01DX009 (ip), vehicle: Klucel (hydroxypropylcellulose) (HPC)",93 % of control and 98 % of control
same,T/C,"dose: 3.0 mg/kg/injection, schedule: Q01DX009 (ip), vehicle: Klucel (hydroxypropylcellulose) (HPC)",95 % of control
same,T/C,"dose: 6.25 mg/kg/injection, schedule: Q01DX009 (ip), vehicle: Klucel (hydroxypropylcellulose) (HPC)",91 % of control
C(/C=C\c1ccccc1)=Nc1ccccc1,T/C,[5],91 % of control
same,T/C,"dose: 25.0 mg/kg/injection, schedule: Q04DX003 (ip), vehicle: saline",95 % of control
same,T/C,[6],95 % of control
same,T/C,"dose: 50.0 mg/kg/injection, schedule: Q04DX003 (ip), vehicle: saline",100 % of control
same,T/C,"dose: 88.0 mg/kg/injection, schedule: Q01DX009 (ip), vehicle: saline with Tween-80",105 % of control
same,T/C,"dose: 100.0 mg/kg/injection, schedule: Q01DX009 (ip), vehicle: saline",104 % of control
same,T/C,[2],104 % of control
same,T/C,"dose: 100.0 mg/kg/injection, schedule: Q04DX003 (ip), vehicle: saline",100 % of control
same,T/C,"dose: 132.0 mg/kg/injection, schedule: Q01DX009 (ip), vehicle: saline with Tween-80",110 % of control
same,T/C,[3],118 % of control
same,T/C,"dose: 300.0 mg/kg/injection, schedule: Q01DX009 (ip), vehicle: saline with Tween-80",110 % of control
same,T/C,"dose: 400.0 mg/kg/injection, schedule: Q01DX009 (ip), vehicle: saline with Tween-80",150 % of control
same,T/C,[4],118 % of control
CC[P+]1(c2ccccc2)CCCc2ccc3ccccc3c21 (stereo unspecified),T/C,"dose: 1.56 mg/kg/injection, schedule: Q01DX009 (ip), vehicle: saline",116 % of control
same,T/C,"dose: 3.12 mg/kg/injection, schedule: Q01DX009 (ip), vehicle: saline",120 % of control
same,T/C,"dose: 30.0 mg/kg/injection, schedule: Q01DX009 (ip), vehicle: saline",90 % of control
O=C1c2ccccc2S(=O)(=O)c2cc(-c3nn[nH]n3)ccc21,T/C,"dose: 50.0 mg/kg/injection, schedule: Q01DX009 (ip), vehicle: Klucel (hydroxypropylcellulose) (HPC)",106 % of control
same,T/C,"dose: 100.0 mg/kg/injection, schedule: Q01DX009 (ip), vehicle: Klucel (hydroxypropylcellulose) (HPC)",94 % of control
same,T/C,"dose: 200.0 mg/kg/injection, schedule: Q01DX009 (ip), vehicle: Klucel (hydroxypropylcellulose) (HPC)",104 % of control
O=c1oc2ccccc2c2c1C(c1ccccc1)C=C(c1ccccc1)O2 (stereo unspecified),T/C,[1],96 % of control
same,T/C,[2],91 % of control
same,T/C,[3],91 % of control
same,T/C,[4],95 % of control
OC(c1ccc(Cl)cc1)(c1ccc(Cl)cc1)C(F)(F)F,T/C,"dose: 100.0 mg/kg/injection, schedule: Q01DX009 (sc), vehicle: olive oil, sesame oil, peanut oil",96 % of control
same,T/C,"dose: 100.0 mg/kg/injection, schedule: Q04DX003 (sc), vehicle: olive oil, sesame oil, peanut oil",109 % of control
same,T/C,"dose: 200.0 mg/kg/injection, schedule: Q04DX003 (sc), vehicle: olive oil, sesame oil, peanut oil",100 % of control
same,T/C,"dose: 400.0 mg/kg/injection, schedule: Q04DX003 (sc), vehicle: olive oil, sesame oil, peanut oil",95 % of control
CCCCCCCCCCCCSSC(=S)OC(C)C,T/C,"dose: 50.0 mg/kg/injection, schedule: Q01DX009 (ip), vehicle: other",106 % of control
same,T/C,"dose: 100.0 mg/kg/injection, schedule: Q01DX009 (ip), vehicle: other",124 % of control
